Laboratory results reported in US9169260B2 (MERCK SHARP & DOHME CORP., priority 2011, dated 2015).

Target: GST tagged IRAK-4 (Homo sapiens (Human), UniProt Q9NWZ3)
Assay: IRAK-4 Kinase Assay (IMAP fluorescence polarization)
Assay type: biochemical
Conditions: 100 μM ATP, 30 minutes at 25° C.
In short: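 Activity was read by IMAP fluorescence polarization, where phosphopeptide binding to M(III) nanoparticles raises FP. The 30-minute, 25° C reaction used 100 μM ATP, 100 nM RP7030 substrate and 0.5 nM GST-IRAK-4 in pH 7.2 Tris buffer with MgCl2, DTT and Tween 20.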

Chain of GST tagged IRAK-4 (Q9NWZ3 whole entry): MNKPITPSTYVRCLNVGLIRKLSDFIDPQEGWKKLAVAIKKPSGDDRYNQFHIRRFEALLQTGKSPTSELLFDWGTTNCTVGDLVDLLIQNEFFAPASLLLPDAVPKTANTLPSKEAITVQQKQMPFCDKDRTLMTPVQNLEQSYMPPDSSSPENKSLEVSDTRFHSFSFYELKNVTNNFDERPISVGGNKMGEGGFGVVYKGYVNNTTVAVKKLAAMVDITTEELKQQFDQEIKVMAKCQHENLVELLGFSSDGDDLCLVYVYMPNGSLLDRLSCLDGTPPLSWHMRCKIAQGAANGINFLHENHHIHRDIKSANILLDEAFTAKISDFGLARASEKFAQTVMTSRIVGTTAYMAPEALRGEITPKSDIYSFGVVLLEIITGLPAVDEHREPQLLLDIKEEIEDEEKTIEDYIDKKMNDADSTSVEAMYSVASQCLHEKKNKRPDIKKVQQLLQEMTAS

Row | IC50 [µM] | IC50 (μM) [µM] | Compound
1 | < 0.1 | – | Cc1ccc(-n2nc(-c3ccc(CO)nc3)cc2NC(=O)c2cnn3cccnc23)cc1 [Example 330, N-{3-[6-(hydroxymethyl)pyridin-3-yl]-1-(4-methylphenyl)-1H-pyrazol-5-yl}pyrazolo[1,5-a]pyrimidine-3-carboxamide]
2 | – | < 1 | Cc1ccc(-n2nc(C3CCN(S(=O)(=O)c4ccccc4F)CC3)cc2NC(=O)c2cnn3cccnc23)cc1 [Example 378, N-[3-{1-[(2-fluorophenyl)sulfonyl]piperidin-4-yl}-1-(4-methylphenyl)-1H-pyrazol-5-yl]pyrazolo[1,5-a]pyrimidine-3-carboxamide]
3 | < 0.1 | – | Cc1ccc(-n2nc(C3CCC(=O)CC3)cc2NC(=O)c2cnn3cccnc23)cc1 [Example 1, N-(3-(4-oxocyclohexyl)-1-p-tolyl-1H-pyrazol-5-yl)pyrazolo[1,5-a]pyrimidine-3-carboxamide]
4 | – | < 1 | Cc1ccc(-n2nc(C3CCOCC3)cc2NC(=O)c2cnn3cccnc23)cc1 [Example 46, N-(3-(tetrahydro-2H-pyran-4-yl)-1-(p-tolyl)-1H-pyrazol-5-yl)pyrazolo[1,5-a]pyrimidine-3-carboxamide]
5 | – | < 1 | Cc1ccc(-n2nc(C3CCN(S(=O)(=O)c4cccc(C(F)(F)F)n4)CC3)cc2NC(=O)c2cnn3cccnc23)cc1 [Example 394, N-[1-(4-methylphenyl)-3-(1-{[6-(trifluoromethyl)pyridin-2-yl]sulfonyl}piperidin-4-yl)-1H-pyrazol-5-yl]pyrazolo[1,5-a]pyrimidine-3-carboxamide]
6 | < 0.1 | – | COc1ccc(-n2nc(C3CCN(S(C)(=O)=O)CC3)cc2NC(=O)c2cnn3cccnc23)c(F)c1 [Example 64, N-(1-(2-fluoro-4-methoxyphenyl)-3-(1-(methylsulfonyl)piperidin-4-yl)-1H-pyrazol-5-yl)pyrazolo[1,5-a]pyrimidine-3-carboxamide]
7 | < 0.1 | – | COc1ccc(-n2nc(C3CCN(C(C)C)CC3)cc2NC(=O)c2cnn3cccnc23)c(F)c1 [Example 62, N-(1-(2-fluoro-4-methoxyphenyl)-3-(1-isopropylpiperidin-4-yl)-1H-pyrazol-5-yl)pyrazolo[1,5-a]pyrimidine-3-carboxamide]
8 | < 0.1 | – | CC(C)N1CCC(c2cc(NC(=O)c3cnn4cccnc34)n(-c3ccc(C4CC4)cc3)n2)CC1 [Example 55, N-(1-(4-cyclopropylphenyl)-3-(1-isopropylpiperidin-4-yl)-1H-pyrazol-5-yl)pyrazolo[1,5-a]pyrimidine-3-carboxamide]
9 | < 0.1 | – | Cc1ccc(-n2nc(-c3ccnc(N)c3)cc2NC(=O)c2cnn3cccnc23)cc1 [Example 355, N-[3-(2-aminopyridin-4-yl)-1-(4-methylphenyl)-1H-pyrazol-5-yl]pyrazolo[1,5-a]pyrimidine-3-carboxamide]
10 | – | < 1 | Cc1ccc(-n2nc(C3CCN(Cc4ccncc4)CC3)cc2NC(=O)c2cnn3cccnc23)cc1 [Example 224, N-(3-(1-(pyridin-4-ylmethyl)piperidin-4-yl)-1-(p-tolyl)-1H-pyrazol-5-yl)pyrazolo[1,5-a]pyrimidine-3-carboxamide]
11 | – | < 1 | Cc1ccc(-n2nc(C3CCS(=O)(=O)CC3)cc2NC(=O)c2cnn3cccnc23)cc1 [Example 98, N-(3-(1,1-dioxidotetrahydro-2H-thiopyran-4-yl)-1-(p-tolyl)-1H-pyrazol-5-yl)pyrazolo[1,5-a]pyrimidine-3-carboxamide]
12 | < 0.1 | – | Cc1ccc(-n2nc(-c3ccc(S(=O)(=O)N4CCN(C)CC4)cc3)cc2NC(=O)c2cnn3cccnc23)nc1 [Example 178, N-(3-(4-((4-methylpiperazin-1-yl)sulfonyl)phenyl)-1-(5-methylpyridin-2-yl)-1H-pyrazol-5-yl)pyrazolo[1,5-a]pyrimidine-3-carboxamide]
13 | – | < 1 | Cc1ccc(-n2nc(C3CCCN(S(C)(=O)=O)C3)cc2NC(=O)c2cnn3cccnc23)cc1 (centres unmarked) [Example 43, N-(3-(1-(methylsulfonyl)piperidin-3-yl)-1-(p-tolyl)-1H-pyrazol-5-yl)pyrazolo[1,5-a]pyrimidine-3-carboxamide]
14 | < 0.1 | – | Cc1ccc(-n2nc(C3CN(Cc4cccnc4)C3)cc2NC(=O)c2cnn3cccnc23)cc1 [Example 314, N-{1-(4-methylphenyl)-3-[1-(pyridin-3-ylmethyl)azetidin-3-yl]-1H-pyrazol-5-yl}pyrazolo[1,5-a]pyrimidine-3-carboxamide]
15 | < 0.1 | – | Cc1ccc(-n2nc(C3CCN(CC(F)(F)F)CC3)cc2NC(=O)c2cnn3cccnc23)cc1 [Example 41, N-(1-(p-tolyl)-3-(1-(2,2,2-trifluoroethyl)piperidin-4-yl)-1H-pyrazol-5-yl)pyrazolo[1,5-a]pyrimidine-3-carboxamide]
16 | < 0.1 | – | CC(C)N1CC(c2cc(NC(=O)c3cnn4cccnc34)n(-c3ccc(C4CC4)cc3F)n2)C1 [Example 88, N-(1-(4-cyclopropyl-2-fluorophenyl)-3-(1-isopropylazetidin-3-yl)-1H-pyrazol-5-yl)pyrazolo[1,5-a]pyrimidine-3-carboxamide]

Row | IC50 [µM] | IC50 (μM) [µM] | Compound
17 | – | < 1 | Cc1ccc(-n2nc(C3=CC(=O)N(C)CC3)cc2NC(=O)c2cnn3cccnc23)cc1 [Example 354, N-[3-(1-methyl-6-oxo-1,2,3,6-tetrahydropyridin-4-yl)-1-(4-methylphenyl)-1H-pyrazol-5-yl]pyrazolo[1,5-a]pyrimidine-3-carboxamide]
18 | – | < 1 | Cc1ccc(-n2nc(C3CN(Cc4ccncc4)C3)cc2NC(=O)c2cnn3cccnc23)cc1 [Example 309, N-{1-(4-methylphenyl)-3-[1-(pyridin-4-ylmethyl)azetidin-3-yl]-1H-pyrazol-5-yl}pyrazolo[1,5-a]pyrimidine-3-carboxamide]
19 | < 0.1 | – | Cc1ccc(-n2nc(C3CCN(C4CC4)CC3)cc2NC(=O)c2cnn3cccnc23)cc1 [Example 40, N-(3-(1-cyclopropylpiperidin-4-yl)-1-(p-tolyl)-1H-pyrazol-5-yl)pyrazolo[1,5-a]pyrimidine-3-carboxamide]
20 | – | < 1 | COc1ccc(-n2nc(C3CCNCC3)cc2NC(=O)c2cnn3cc(Br)cnc23)cc1 [Example 104, 6-bromo-N-(1-(4-methoxyphenyl)-3-(piperidin-4-yl)-1H-pyrazol-5-yl)pyrazolo[1,5-a]pyrimidine-3-carboxamide]
21 | – | < 1 | Cc1ccc(-n2nc(C3CCC(O)CC3)cc2NC(=O)c2cnn3cccnc23)cc1 (centres unmarked) [Example 6, N-(3-(4-hydroxycyclohexyl)-1-(p-tolyl)-1H-pyrazol-5-yl)pyrazolo[1,5-a]pyrimidine-3-carboxamide]
22 | – | < 1 | Cc1ccc(-n2nc(C3CCN(S(=O)(=O)c4ccc(N5CCOCC5)nc4)CC3)cc2NC(=O)c2cnn3cccnc23)cc1 [Example 383, N-[1-(4-methylphenyl)-3-{1-[(6-morpholin-4-ylpyridin-3-yl)sulfonyl]piperidin-4-yl}-1H-pyrazol-5-yl]pyrazolo[1,5-a]pyrimidine-3-carboxamide]
23 | – | < 1 | Cc1cccc(-n2nc(C3CCN(S(=O)(=O)C4CC4)CC3)cc2NC(=O)c2cnn3cccnc23)c1 [Example 21, N-(3-(1-(cyclopropylsulfonyl)piperidin-4-yl)-1-(m-tolyl)-1H-pyrazol-5-yl)pyrazolo[1,5-a]pyrimidine-3-carboxamide]
24 | < 0.1 | – | COc1ccc(-n2nc(C3CCN(S(=O)(=O)C4CC4)CC3)cc2NC(=O)c2cnn3cccnc23)cc1 [Example 24, N-(3-(1-(cyclopropylsulfonyl)piperidin-4-yl)-1-(4-methoxyphenyl)-1H-pyrazol-5-yl)pyrazolo[1,5-a]pyrimidine-3-carboxamide]
25 | – | < 1 | COc1ncc(CN2CC(c3cc(NC(=O)c4cnn5cccnc45)n(-c4ccc(C)cc4)n3)C2)cn1 [Example 317, N-[3-{1-[(2-methoxypyrimidin-5-yl)methyl]azetidin-3-yl}-1-(4-methylphenyl)-1H-pyrazol-5-yl]pyrazolo[1,5-a]pyrimidine-3-carboxamide]
26 | – | < 1 | Cc1ccc(-n2nc(C3CCN(C(N)=O)CC3)cc2NC(=O)c2cnn3cccnc23)cc1 [Example 35, N-(3-(1-carbamoylpiperidin-4-yl)-1-(p-tolyl)-1H-pyrazol-5-yl)pyrazolo[1,5-a]pyrimidine-3-carboxamide]
27 | – | < 1 | Cc1ccc(-n2nc(C3CCCN(CC4CC4)C3)cc2NC(=O)c2cnn3cccnc23)cc1 (centres unmarked) [Example 297, N-{3-[1-(cyclopropylmethyl)piperidin-3-yl]-1-(4-methylphenyl)-1H-pyrazol-5-yl}pyrazolo[1,5-a]pyrimidine-3-carboxamide]
28 | – | < 1 | O=C(Nc1cc(C2CCNCC2)nn1-c1ccc(C(F)(F)F)cc1)c1cnn2cccnc12 [Example 11, N-(3-(piperidin-4-yl)-1-(4-(trifluoromethyl)phenyl)-1H-pyrazol-5-yl)pyrazolo[1,5-a]pyrimidine-3-carboxamide]
29 | – | < 1 | Cc1ccc(-n2nc(C3CCCN(Cc4nccs4)C3)cc2NC(=O)c2cnn3cccnc23)cc1 (centres unmarked) [Example 298, N-{1-(4-methylphenyl)-3-[1-(1,3-thiazol-2-ylmethyl)piperidin-3-yl]-1H-pyrazol-5-yl}pyrazolo[1,5-a]pyrimidine-3-carboxamide]
30 | < 0.1 | – | [2H]C([2H])([2H])c1ccc(-n2nc(N3CCN(C)CC3)cc2NC(=O)c2cnn3cccnc23)nc1 [Example 198, N-(3-(4-methylpiperazin-1-yl)-1-(5-trideuteromethylpyridin-2-yl)-1H-pyrazol-5-yl)pyrazolo[1,5-a]pyrimidine-3-carboxamide]
31 | < 0.1 | – | N3-(3-(1-(methylsulfonyl)piperidin-4-yl)-1-(p-tolyl)-1H-pyrazol-5-yl)pyrazolo[1,5-a]pyrimidine-3,6-dicarboxamide [Example 192]

Row | Compound | IC50 [µM] | IC50 (μM) [µM]
32 | Cc1ccc(-n2nc(C3=CCN(C)CC3)cc2NC(=O)c2cnn3cccnc23)cc1 [Example 140, N-(3-(1-methyl-1,2,3,6-tetrahydropyridin-4-yl)-1-(p-tolyl)-1H-pyrazol-5-yl)pyrazolo[1,5-a]pyrimidine-3-carboxamide] | < 0.1 | –
